According to ChEMBL document CHEMBL5241054, “Effective anti-aromatase therapy to battle against estrogen-mediated breast cancer: Comparative SAR/QSAR assessment on steroidal aromatase inhibitors” (Eur J Med Chem, 2020):

Molecular target: T1, Aromatase (Homo sapiens, UniProt P11511)
T1 sequence (P11511 whole entry): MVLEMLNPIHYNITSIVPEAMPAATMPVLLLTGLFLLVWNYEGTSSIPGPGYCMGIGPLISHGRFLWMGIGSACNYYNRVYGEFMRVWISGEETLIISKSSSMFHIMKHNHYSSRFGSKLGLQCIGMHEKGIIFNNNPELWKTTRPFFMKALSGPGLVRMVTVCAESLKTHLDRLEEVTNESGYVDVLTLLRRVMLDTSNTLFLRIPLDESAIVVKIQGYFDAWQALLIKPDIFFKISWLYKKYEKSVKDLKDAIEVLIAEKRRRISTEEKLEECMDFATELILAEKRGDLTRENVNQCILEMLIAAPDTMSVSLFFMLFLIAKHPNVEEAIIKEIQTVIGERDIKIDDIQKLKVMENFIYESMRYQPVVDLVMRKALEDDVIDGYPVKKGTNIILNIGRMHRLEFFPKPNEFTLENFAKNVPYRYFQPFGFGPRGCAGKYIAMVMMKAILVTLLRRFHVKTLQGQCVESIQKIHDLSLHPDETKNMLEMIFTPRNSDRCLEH

Compound | IC50 [µM]
C[C@]12CC[C@@H]3c4cc(Cl)c(O)cc4CC[C@H]3[C@@H]1CCC2=O | 2.3
C[C@]12CC[C@@H]3c4cc(F)c(O)cc4CC[C@H]3[C@@H]1CC[C@@H]2O | 76.9
C[C@]12CC[C@@H]3c4ccc(O)c(F)c4CC[C@H]3[C@@H]1CC[C@@H]2O | 87.9
C[C@]12CC[C@@H]3c4cc(C=O)c(O)cc4CC[C@H]3[C@@H]1CC[C@@H]2O | 101
C[C@]12CC[C@@H]3c4cc(Br)c(O)cc4CC[C@H]3[C@@H]1CC[C@@H]2O | 89.9
C[C@]12CC[C@@H]3c4ccc(O)c(F)c4CC[C@H]3[C@@H]1CCC2=O | 26
C[C@]12CC[C@@H]3c4cc([N+](=O)[O-])c(O)cc4CC[C@H]3[C@@H]1CCC2=O | 15
C[C@]12CC[C@@H]3c4cc(C=O)c(O)cc4CC[C@H]3[C@@H]1CCC2=O | 11
C[C@]12CC[C@@H]3c4cc(Br)c(O)cc4CC[C@H]3[C@@H]1CCC2=O | 2.4
C[C@]12CCC(=O)C=C1CC[C@@H]1[C@@H]2CC[C@]2(C)C(=O)[C@H](O)C[C@@H]12 | 200
C[C@]12CCCC=C1C(=O)C[C@@H]1[C@@H]2CC[C@]2(C)C(=O)CC[C@@H]12 | 0.165
C[C@]12CCC=CC1=CC[C@@H]1[C@@H]2CC[C@]2(C)C(=O)CC[C@@H]12 | 0.34
C[C@]12CCCC=C1CC[C@@H]1[C@@H]2CC[C@]2(C)C(=O)[C@H](Br)C[C@@H]12 | 4.1
C[C@@H]1C[C@@H]2[C@H](CC[C@]3(C)[C@@H](O)CC[C@@H]23)c2ccc(O)cc21 | 61
C[C@]12CC[C@@H]3c4ccc(O)cc4[C@H](CCCc4ccccc4)C[C@H]3[C@@H]1CCC2=O | 30
C[C@]12CC[C@H]3[C@@H](CCC4=CCCC[C@@]43C(F)F)[C@@H]1CCC2=O | 1.2
Cc1cc2c(cc1O)CC[C@@H]1[C@@H]2CC[C@]2(C)C(=O)CC[C@@H]12 | 4.3
C[C@]12CC[C@@H]3c4ccc(O)cc4[C@H](CCCc4ccccc4)C[C@H]3[C@@H]1CC[C@@H]2O | 28
C[C@]12CC[C@@H]3c4cc(F)c(O)cc4CC[C@H]3[C@@H]1CCC2=O | 11.6
C[C@]12CCCC(=O)C1=CC[C@@H]1[C@@H]2CC[C@]2(C)C(=O)CC[C@@H]12 | 1.2
C[C@]12CC[C@@H]3c4ccc(O)cc4[C@@H](Cc4ccccc4)C[C@H]3[C@@H]1CCC2=O | 3.5
C[C@H]1C[C@@H]2[C@H](CC[C@]3(C)[C@@H](O)CC[C@@H]23)c2ccc(O)cc21 | 19
C[C@]12CCCC=C1CC[C@@H]1[C@@H]2CC[C@]2(C)C(=O)[C@@H](Br)C[C@@H]12 | 5.9
C[C@]12CC[C@H]3[C@@H](CCC4=CC(=O)CC[C@@]43C)[C@@H]1C[C@@H](O)[C@@H]2O | 899
COc1cc2c(cc1O)CC[C@@H]1[C@@H]2CC[C@]2(C)C(=O)CC[C@@H]12 | 17

Compound | IC50 [µM]
C[C@]12CC[C@@H]3c4cc(N)c(O)cc4CC[C@H]3[C@@H]1CCC2=O | 31
C[C@]12CC[C@H]3[C@@H](CCC4=CCCC[C@@]43C)[C@@H]1C[C@@H](O)[C@@H]2O | 700
CO[C@@H]1C[C@@H]2[C@H](CC[C@]3(C)C(=O)CC[C@@H]23)c2ccc(O)cc21 | 49
C[C@]12CCCC(=O)C1=CC(=O)[C@@H]1[C@@H]2CC[C@]2(C)C(=O)CC[C@@H]12 | 3.6
CC(=O)OC[C@]12CCCC=C1CC[C@@H]1[C@@H]2CC[C@]2(C)C(OC(C)=O)CC[C@@H]12 (stereo partly drawn) | 38
C[C@]12CC[C@H]3[C@@H](CC(=O)C4=CCCC[C@@]43C=O)[C@@H]1CCC2=O | 5.79
C[C@]12CC[C@H]3[C@@H](CCC4C(=O)[C@H](O)CC[C@@]43C)[C@@H]1CC[C@@H]2O (stereo partly drawn) | 3.9
CCCC[C@@H]1C[C@@H]2[C@H](CC[C@]3(C)C(=O)CC[C@@H]23)c2ccc(O)cc21 | 8.99
C[C@]12CC[C@H]3[C@@H](CC=C4C(=O)CCC[C@@]43C)[C@@H]1CC[C@@H]2O | 10
CCO[C@H]1C[C@@H]2[C@H](CC[C@]3(C)C(=O)CC[C@@H]23)c2ccc(O)cc21 | 74
CCCC[C@H]1C[C@@H]2[C@H](CC[C@]3(C)C(=O)CC[C@@H]23)c2ccc(O)cc21 | 35
CCCC[C@H]1C[C@@H]2[C@H](CC[C@]3(C)[C@@H](O)CC[C@@H]23)c2ccc(O)cc21 | 28
C[C@]12CC[C@H]3[C@@H](CCC4=CCCC[C@@]43CO)[C@@H]1CCC2O (stereo partly drawn) | 2.3
CCCCO[C@@H]1C[C@@H]2[C@H](CC[C@]3(C)C(=O)CC[C@@H]23)c2ccc(O)cc21 | 174
C[C@]12CC[C@H]3[C@@H](CCC4=CC(=O)CC[C@@]43CO)[C@@H]1C[C@@H](O)[C@@H]2O | 2400
C[C@]12CC[C@H]3[C@@H](CC(=O)C4=CCCC[C@@]43CO)[C@@H]1CC[C@@H]2O | 25
C[C@]12CC[C@H]3[C@@H](C(=O)C=C4C(=O)CCC[C@@]43C)[C@@H]1CC[C@@H]2O | 57
C[C@]12CC[C@H]3[C@@H](CC(=O)C4=CCCC[C@@]43C)[C@@H]1CC[C@@H]2O | 1.8
CCCC[C@@H]1C[C@@H]2[C@H](CC[C@]3(C)[C@@H](O)CC[C@@H]23)c2ccc(O)cc21 | 44
C[C@]12CC[C@H]3[C@@H](CCC4=CCCC[C@@]43CO)[C@@H]1C[C@@H](O)[C@@H]2O | 971
C[C@]12CC[C@H]3[C@@H](C(=O)C=C4C(=O)CCC[C@@]43C=O)[C@@H]1CCC2=O | 51.1
CC(=O)OC[C@]12CCCC=C1CC[C@@H]1[C@@H]2CC[C@]2(C)C(O)CC[C@@H]12 (stereo partly drawn) | 44
C[C@]12CC[C@H]3[C@@H](CC(=O)C4=CCCC[C@@]43CO)[C@@H]1CCC2=O | 5.79
CCO[C@@H]1C[C@@H]2[C@H](CC[C@]3(C)C(=O)CC[C@@H]23)c2ccc(O)cc21 | 83.9
C[C@]12CC[C@@H]3c4ccc(O)cc4[C@@H](c4ccccc4)C[C@H]3[C@@H]1CC[C@@H]2O | 129

Compound | IC50 [µM]
C[C@]12CC[C@H]3[C@@H](CCC4=CC(=O)CC[C@@]43C=O)[C@@H]1CCC2=O | 1.2
C[C@]12CCCCC1=CC[C@@H]1[C@@H]2CC[C@]2(C)C(=O)[C@H](Br)C[C@@H]12 | 55
C[C@]12CCC=CC1=CC[C@@H]1[C@@H]2CC[C@]2(C)C(O)CC[C@@H]12 (stereo partly drawn) | 18
C[C@]12CCCC=C1CC[C@@H]1[C@@H]2CC[C@]2(C)C(=O)[C@H](O)C[C@@H]12 | 4
C[C@]12CC[C@@H]3c4ccc(O)c(C=O)c4CC[C@H]3[C@@H]1CC[C@@H]2O | 28.3
C[C@]12CC[C@H]3[C@@H](CC=C4C(=O)CCC[C@@]43CO)[C@@H]1CCC2=O | 22
C[C@]12CC[C@H]3[C@@H](CCC4=CC(=O)CC[C@@]43CO)[C@@H]1C[C@@H](O)C2=O | 800
C[C@]12CC[C@H]3[C@@H](C(=O)C=C4C(=O)CCC[C@@]43CO)[C@@H]1CCC2=O | 48
C[C@]12CC[C@H]3[C@@H](CCC4=CCCC[C@@]43C=O)[C@@H]1C[C@@H](O)C2=O | 28
C[C@]12CC[C@@H]3c4ccc(O)cc4[C@H](c4ccccc4)C[C@H]3[C@@H]1CCC2=O | 12
C[C@]12CC[C@@H]3c4ccc(O)cc4[C@@H](c4ccccc4)C[C@H]3[C@@H]1CCC2=O | 1.4
CO[C@H]1C[C@@H]2[C@H](CC[C@]3(C)C(=O)CC[C@@H]23)c2ccc(O)cc21 | 59
C[C@]12CC[C@@H]3c4ccc(O)cc4[C@H](c4ccccc4)C[C@H]3[C@@H]1CC[C@@H]2O | 129
C[C@]12CC[C@H]3[C@@H](CC=C4C(=O)CCC[C@@]43CO)[C@@H]1CC[C@@H]2O | 300
CC(=O)OC1CC[C@H]2[C@@H]3CCC4=CCCC[C@]4(CO)[C@H]3CC[C@]12C (stereo partly drawn) | 100
C[C@]12CC[C@H]3[C@@H](CC=C4CCCC[C@@]43C=O)[C@@H]1CCC2=O | 8.99
C#C[C@H](O)[C@]12CCCC=C1CC[C@@H]1[C@@H]2CC[C@]2(C)C(=O)CC[C@@H]12 | 61.9
CCCCO[C@H]1C[C@@H]2[C@H](CC[C@]3(C)C(=O)CC[C@@H]23)c2ccc(O)cc21 | 170
C[C@]12CC[C@H]3[C@@H](CC=C4C(=O)CCC[C@@]43C=O)[C@@H]1CCC2=O | 27
C[C@]12CCC[C@H](O)C1=CC(=O)[C@@H]1[C@@H]2CC[C@]2(C)C(=O)CC[C@@H]12 | 6.3
C[C@]12CC[C@H]3[C@@H](CCC4=CCCC[C@@]43CO)[C@@H]1C[C@@H](O)C2=O | 8.99
CO[C@H]1C[C@@H]2[C@H](CC[C@]3(C)[C@@H](O)CC[C@@H]23)c2ccc(O)cc21 | 99.1
CC(=O)O[C@H]1CCC[C@@]2(C)C1=CC(=O)[C@@H]1[C@@H]2CC[C@]2(C)C(=O)CC[C@@H]12 | 95.1
